Experimental findings from patent publication US20230399312A1, “SUBSTITUTED PYRIMIDINES AND METHODS OF USE” (THERAVANCE BIOPHARMA R&D IP, LLC, priority 2020, published 2023) are described below.

SMILES strings stand for the structures. Where only a bound is given, the exact number is not on record here.

Test [1] concerns TGF-β-stimulated SMAD3 phosphorylation in BEAS-2B cells. Kind of test: Cellular ALK5 potency assay, inhibition of TGF-β stimulated pSMAD3 formation in BEAS-2B cells. The conditions noted are these: Homo sapiens, pSMAD3, TGF-β 10 ng/mL, read-out: BEAS2B pIC50 (converted). It counts as cell-based. The essentials: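 Read-out is AlphaLISA detection of phospho-SMAD3 in lysates of BEAS-2B human lung epithelial cells. Cells are exposed to compound for 1 hour, then to 10 ng/mL TGF-β (final) for 30 minutes. Values are pIC50 from concentration–response curves.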

Test [2] has as its target T1, recombinant human ALK5 (TGF-βR1) protein (Homo sapiens, UniProt P36897).
T1 construct: purchased Life Technologies PR9075A
T1 sequence (P36897 34-503): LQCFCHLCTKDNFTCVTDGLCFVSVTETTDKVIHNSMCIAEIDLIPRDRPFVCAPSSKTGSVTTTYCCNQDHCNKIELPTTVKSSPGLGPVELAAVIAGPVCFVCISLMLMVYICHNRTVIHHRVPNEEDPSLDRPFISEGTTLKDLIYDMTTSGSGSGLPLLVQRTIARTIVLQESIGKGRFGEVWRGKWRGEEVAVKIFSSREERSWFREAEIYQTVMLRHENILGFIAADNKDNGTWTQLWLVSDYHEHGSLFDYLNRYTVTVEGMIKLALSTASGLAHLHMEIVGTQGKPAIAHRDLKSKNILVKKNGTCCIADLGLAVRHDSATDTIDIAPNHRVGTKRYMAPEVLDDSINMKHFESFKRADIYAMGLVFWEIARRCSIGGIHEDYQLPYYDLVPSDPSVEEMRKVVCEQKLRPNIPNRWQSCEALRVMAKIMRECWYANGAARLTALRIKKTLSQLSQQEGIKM
Put plainly: Biochemical ALK5 (TGF-βR1) assay to measure pKi (LANCE Ultra ULight kinase assay). The settings on record: apparent pKi, converted from pIC50 by Cheng-Prusoff. The essentials:
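Cmpd + enzyme, 60 min RT; ATP from 125 μM (5×) stock, 60 min 37 °C; stop 12 mM EDTA/Eu anti-pThr1342 Topo2α Ab (pH 7.0 buffer); TR-FRET 665 nm. DMSO = max, SD-208 = min signal. 4-PL pIC50 → pKi (Cheng-Prusoff).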
Background: TR-FRET usually uses a lanthanide donor and a delayed reading to cut background.

In the case of `Cc1cccc(-c2nccc(Nc3ccnc(Nc4ccc(N5CCNCC5)c(C)c4)n3)n2)n1` [Compound 515, N2-(3-methyl-4-piperazin-1-yl-phenyl)-N4-[2-(6-methyl-2-pyridyl)pyrimidin-4-yl]pyrimidine-2,4-diamine], the IC50 in test [1] was 25.1 to 158 nM. For the same compound, the Ki in test [2] was 0.0398 to 0.316 nM.

In the case of `COC(=O)C1CCCN(Cc2ccc(Nc3nccc(Nc4ccnc(-c5cccc(C)n5)n4)n3)cc2)C1` (stereo not drawn) [Compound 516, methyl 1-[[4-[[4-[[2-(6-methyl-2-pyridyl)pyrimidin-4-yl]amino]pyrimidin-2-yl]amino]phenyl]methyl] piperidine-3-carboxylate], the IC50 in test [1] was 25.1 to 158 nM. For the same compound, the Ki in test [2] is 0.0398 to 0.316 nM.

Take `COC(=O)CCc1ccc(Nc2nccc(Nc3ccnc(-c4cccc(C)n4)n3)n2)cc1` [Compound 517, methyl 3-[4-[[4-[[2-(6-methyl-2-pyridyl)pyrimidin-4-yl]amino]pyrimidin-2-yl]amino]phenyl]propanoate]: the IC50 in test [1] is 200 to 1260 nM. For the same compound, the Ki in test [2] is 0.398 to 3.16 nM.

On to `Cc1cccc(-c2nccc(Nc3ccnc(Nc4ccc(CN5CCC(C(=O)OCC6CNC6)C5)cc4)n3)n2)n1` (stereo not drawn) [Compound 518, azetidin-3-ylmethyl 1-[[4-[[4-[[2-(6-methyl-2-pyridyl)pyrimidin-4-yl]amino]pyrimidin-2-yl]amino]phenyl]methyl] pyrrolidine-3-carboxylate], for which the IC50 in test [1] is 25.1 to 158 nM. The Ki in test [2] was 0.0398 to 0.316 nM.

Consider `Cc1cccc(-c2nccc(Nc3ccnc(Nc4cccc(CN5C[C@@H](C)N[C@@H](C)C5)c4)n3)n2)n1` [Compound 519, N4-[2-(6-methyl-2-pyridyl)pyrimidin-4-yl]-N2-[3-[[rac-(3R,5S)-3,5-dimethylpiperazin-1-yl]methyl]phenyl]pyrimidine-2,4-diamine], for which the IC50 in test [1] was 25.1 to 158 nM. In addition, in test [2], the Ki was 0.0398 to 0.316 nM.

As to `Cc1cccc(-c2nccc(Nc3ccnc(Nc4nc(C(=O)NC5(CO)CCNC5)cs4)n3)n2)n1` (stereo not drawn) [Compound 520, N-[3-(hydroxymethyl)pyrrolidin-3-yl]-2-[[4-[[2-(6-methyl-2-pyridyl)pyrimidin-4-yl]amino]pyrimidin-2-yl]amino]thiazole-4-carboxamide], the IC50 in test [1] was 25.1 to 158 nM. Also, the Ki in test [2] is 0.0398 to 0.316 nM.

Consider `Cc1cccc(-c2nccc(Nc3ccnc(Nc4cccc(CN5CCN(C)CC5)c4)n3)n2)n1` [Compound 521, N2-[3-[(4-methylpiperazin-1-yl)methyl]phenyl]-N4-[2-(6-methyl-2-pyridyl)pyrimidin-4-yl]pyrimidine-2,4-diamine], for which the IC50 in test [1] was 25.1 to 158 nM. Besides, in test [2], the Ki is 0.0398 to 0.316 nM.

On to `Cc1cccc(-c2nccc(Nc3ccnc(Nc4cc(C(=O)O[C@@H]5CCN(C)C5)cs4)n3)n2)n1` [Compound 522, [(3R)-1-methylpyrrolidin-3-yl] 5-[[4-[[2-(6-methyl-2-pyridyl)pyrimidin-4-yl]amino]pyrimidin-2-yl]amino]thiophene-3-carboxylate], for which the IC50 in test [1] was 25.1 to 158 nM. Besides, the Ki in test [2] is 0.0398 to 0.316 nM.

Regarding `Cc1cccc(-c2nccc(Nc3ccnc(Nc4ccc(CN5CCNC(C(=O)OCC(C)C)C5)cc4)n3)n2)n1` (stereo not drawn) [Compound 523, isobutyl 4-[[4-[[4-[[2-(6-methyl-2-pyridyl)pyrimidin-4-yl]amino]pyrimidin-2-yl]amino]phenyl]methyl] piperazine-2-carboxylate], in test [1], the IC50 is ≤ 20 nM. In addition, the Ki in test [2] is 0.0398 to 0.316 nM.

As to `Cc1cccc(-c2nccc(Nc3ccnc(Nc4ccc5c(c4)CC(N)C5)n3)n2)n1` (stereo not drawn) [Compound 524, N2-(2-aminoindan-5-yl)-N4-[2-(6-methyl-2-pyridyl)pyrimidin-4-yl]pyrimidine-2,4-diamine], the IC50 in test [1] is 25.1 to 158 nM. In test [2], the Ki was 0.0398 to 0.316 nM.

Turning to `Cc1cccc(-c2nccc(Nc3ccnc(Nc4ccc(N5CCC(CNCC(C)C)CC5)cc4)n3)n2)n1` [Compound 525, N2-[4-[4-[(isobutylamino)methyl]-1-piperidyl]phenyl]-N4-[2-(6-methyl-2-pyridyl)pyrimidin-4-yl]pyrimidine-2,4-diamine], in test [1], the IC50 was 25.1 to 158 nM. Besides, the Ki in test [2] was 0.398 to 3.16 nM.

On to `Cc1cccc(-c2nccc(Nc3ccnc(Nc4ccc5c(c4)OCCO5)n3)n2)n1` [Compound 526, N2-(2,3-dihydro-1,4-benzodioxin-6-yl)-N4-[2-(6-methyl-2-pyridyl)pyrimidin-4-yl]pyrimidine-2,4-diamine], for which the IC50 in test [1] is 25.1 to 158 nM. Besides, the Ki in test [2] was 3.98 to 31.6 nM.

In the case of `Cc1cccc(-c2nccc(Nc3ccnc(Nc4ccc(S(=O)(=O)N5CCN(C6CC6)CC5)cc4)n3)n2)n1` [Compound 527, N2-[4-(4-cyclopropylpiperazin-1-yl)sulfonylphenyl]-N4-[2-(6-methyl-2-pyridyl)pyrimidin-4-yl]pyrimidine-2,4-diamine], in test [1], the IC50 is 25.1 to 158 nM. Also, in test [2], the Ki is 0.398 to 3.16 nM.

`CCOC(=O)Cc1cc(Nc2ccnc(Nc3ccc(N4CCNCC4)cc3)n2)nc(-c2cccc(C)n2)n1` [Compound 529, ethyl 2-[2-(6-methyl-2-pyridyl)-6-[[2-(4-piperazin-1-ylanilino)pyrimidin-4-yl]amino]pyrimidin-4-yl]acetate]: in test [1], the IC50 is 25.1 to 158 nM. Also, in test [2], the Ki is 3.98 to 31.6 nM.

As to `Cc1cccc(-c2nccc(Nc3ccnc(Nc4ccc(N5CCNCC5)c(CC(=O)OC5CNC5)c4)n3)n2)n1` [Compound 530, azetidin-3-yl 2-[5-[[4-[[2-(6-methyl-2-pyridyl)pyrimidin-4-yl]amino]pyrimidin-2-yl]amino]-2-piperazin-1-yl-phenyl]acetate], in test [1], the IC50 is 200 to 1260 nM. The Ki in test [2] was 0.0398 to 0.316 nM.

Turning to `Cc1cccc(-c2nccc(Nc3ccnc(Nc4cccc(NC(=O)N5CCN(C(C)C)CC5)c4)n3)n2)n1` [Compound 531, 4-isopropyl-N-[3-[[4-[[2-(6-methyl-2-pyridyl)pyrimidin-4-yl]amino]pyrimidin-2-yl]amino]phenyl]piperazine-1-carboxamide], the IC50 in test [1] is 25.1 to 158 nM. In addition, the Ki in test [2] is 0.0398 to 0.316 nM.

Turning to `Cc1cccc(-c2nccc(Nc3ccnc(Nc4cc(C(=O)O)cs4)n3)n2)n1` [Compound 532, 5-[[4-[[2-(6-methyl-2-pyridyl)pyrimidin-4-yl]amino]pyrimidin-2-yl]amino]thiophene-3-carboxylic acid], the IC50 in test [1] was 200 to 1260 nM. Further, the Ki in test [2] was 0.398 to 3.16 nM.

In the case of `Cc1cccc(-c2nccc(Nc3ccnc(Nc4ccc(CN5CCN(CC(C)C)CC5)cc4)n3)n2)n1` [Compound 533, N2-[4-[(4-isobutylpiperazin-1-yl)methyl]phenyl]-N4-[2-(6-methyl-2-pyridyl)pyrimidin-4-yl]pyrimidine-2,4-diamine], the IC50 in test [1] was 25.1 to 158 nM. Also, in test [2], the Ki was 0.0398 to 0.316 nM.

For the compound `Cc1cccc(-c2nccc(Nc3ccnc(Nc4ccc(N5CCN(CCO)CC5)cc4)n3)n2)n1` [Compound 534, 2-[4-[4-[[4-[[2-(6-methyl-2-pyridyl)pyrimidin-4-yl]amino]pyrimidin-2-yl]amino]phenyl]piperazin-1-yl]ethanol], the IC50 in test [1] is 25.1 to 158 nM. Moreover, in test [2], the Ki is 0.0398 to 0.316 nM.

Consider `Cc1cccc(-c2nccc(Nc3ccnc(Nc4ccc(-c5cn[nH]c5)cc4)n3)n2)n1` [Compound 535, N4-[2-(6-methyl-2-pyridyl)pyrimidin-4-yl]-N2-[4-(1H-pyrazol-4-yl)phenyl]pyrimidine-2,4-diamine], for which the IC50 in test [1] was ≤ 20 nM. In test [2], the Ki was 3.98 to 31.6 nM.

Regarding `Cc1cccc(-c2nccc(Nc3ccnc(Nc4csc(C(=O)N5CCN[C@@H](CO)C5)c4)n3)n2)n1` [Compound 536, [(3R)-3-(hydroxymethyl)piperazin-1-yl]-[4-[[4-[[2-(6-methyl-2-pyridyl)pyrimidin-4-yl]amino]pyrimidin-2-yl]amino]-2-thienyl]methanone], the IC50 in test [1] was 25.1 to 158 nM. The Ki in test [2] was 0.0398 to 0.316 nM.

On to `Cc1cccc(-c2nccc(Nc3ccnc(Nc4ccc(NCC5CNC5)cc4)n3)n2)n1` [Compound 537, N2-(4-((azetidin-3-ylmethyl)amino)phenyl)-N4-(2-(6-methylpyridin-2-yl)pyrimidin-4-yl)pyrimidine-2,4-diamine], for which the IC50 in test [1] is 25.1 to 158 nM. The Ki in test [2] was 0.0398 to 0.316 nM.

As for `Cc1cccc(-c2nccc(Nc3ccnc(Nc4ccc(-c5cnn(C6COC6)c5)cc4)n3)n2)n1` [Compound 538, N4-(2-(6-methylpyridin-2-yl)pyrimidin-4-yl)-N2-(4-(1-(oxetan-3-yl)-1H-pyrazol-4-yl)phenyl)pyrimidine-2,4-diamine], the IC50 in test [1] was 25.1 to 158 nM. Also, in test [2], the Ki was 0.0398 to 0.316 nM.

`Cc1cccc(-c2nccc(Nc3ccnc(Nc4ccc(C5CNCCN5)cc4)n3)n2)n1` (stereo not drawn) [Compound 539, N4-[2-(6-methyl-2-pyridyl)pyrimidin-4-yl]-N2-(4-piperazin-2-ylphenyl)pyrimidine-2,4-diamine]: the IC50 in test [1] was 25.1 to 158 nM. For the same compound, the Ki in test [2] is ≤ 0.0316 nM.
